These results are taken from US11147272B2, “Pyridone compounds and agricultural and horticultural fungicides comprising the same as active ingredients” (MITSUI CHEMICALS AGRO, INC., priority 2017, dated 2021).

Structures are written as SMILES.

The subject of one experiment is Plasmopara viticola. Nature of the experiment: Test Example G: Downy mildew on vine. The following applies: for Test G control value: 7 to 10 days after inoculation; for Test G control value class: Downy mildew on vine (Neomuscat), 2.5 ml/pot, assessed 7 to 10 days after inoculation.
Experiment [1] deals with Blumeria graminis f. sp. hordei. As to the kind of experiment: Test Example D: Powdery mildew on barley. The following applies: for Test D control value class: class of control value.
For a further experiment, the system named is Alternaia brassicicola. Nature of the experiment: Test Example C: Alternaria sooty spot on cabbage. Type of experiment: in vivo. The following applies: for Test C control value class: class of control value. An excerpt: Seeds of a test plant (cabbage variety: Shikidori) were planted and cultivated until the cotyledons extended.
<Control Value> Control value=100{1−(n/3)}

A further experiment deals with Puccinia recondita. As to the kind of experiment: Test Example E: Brown rust on wheat. Type of experiment: in vivo. The following applies: for Test E control value class: class of control value.
For the next experiment, the system named is Magnaporthe grisea. Nature of the experiment: whole plant or invertebrate. The following applies: for Test A control value class: class of control value. Type of experiment: in vivo.
In another experiment the test system is Botrytis cinerea. Nature of the experiment: Test Example B: Gray mold on tomato. The following applies: for Test B control value class: class of control value.
Another experiment deals with Phytophthora infestans. Nature of the experiment: whole plant or invertebrate. The following applies: for Test F control value class: class of control value. Type of experiment: in vivo.
Experiment [2] has as its system Colletotrichum orbiculare. As to the kind of experiment: Test Example H: Anthracnose on cucumber. The following applies: for Test H control value: 6 to 10 days after inoculation; for Test H control value class: Anthracnose on cucumber (Sagami Hanjiro), 2.5 ml/pot, assessed 6 to 10 days after inoculation.
The mark [3] stands for this setting: Downy mildew on vine, 250 ppm spray.
[4] abbreviates: Powdery mildew on barley, control value class.
[5] abbreviates: Alternaria sooty spot on cabbage, control value class.
Setting [6] is: Brown rust on wheat, control value class.
The mark [7] stands for this setting: Blast on rice, control value class.
The mark [8] stands for this setting: Gray mold on tomato, control value class.
The mark [9] stands for this setting: Late blight on tomato, control value class.
[10] abbreviates: Anthracnose on cucumber, 250 ppm spray.
[11] abbreviates: 250 ppm drug solution sprayed (2.5 ml/pot), grape Neomuscat.
The mark [12] stands for this setting: 250 ppm drug solution sprayed on test plant.
Where [13] appears, read: 250 ppm drug solution sprayed (2.5 ml/pot), cucumber Sagami Hanjiro.
Setting [14] is: Alternaria sooty spot on cabbage.

For the compound `CCn1c(-c2c(F)cc(F)cc2F)c(C=O)cc(Br)c1=O` [compound 364], in the experiment with Plasmopara viticola (setting [3]), the “Test G control value” was “H (more than 50% control value)”. Besides, the “Test D control value” in experiment [1] (setting [4]) is listed as “L (50% or less control value)”. Also, in the experiment with Alternaia brassicicola (setting [5]), the “Test C control value” was “H (more than 50% control value)”. Besides, the “Test E control value” with Puccinia recondita (setting [6]) was “H (more than 50% control value)”. In addition, the “Test A control value” in the experiment with Magnaporthe grisea (setting [7]) is recorded as “L (50% or less control value)”. The “Test B control value” in the experiment on Botrytis cinerea (setting [8]) is recorded as “H (more than 50% control value)”. Besides, the “Test F control value” in the experiment on Phytophthora infestans (setting [9]) is listed as “L (50% or less control value)”. Further, in experiment [2] (setting [10]), the “Test H control value” is recorded as “L (50% or less control value)”.
Take `CCCc1cc(Br)c(=O)n(CC)c1-c1c(F)cc(OC)cc1F` [compound 385]: the “Test G control value” in the experiment on Plasmopara viticola (setting [11]) is “H (more than 50% control value)”. Further, in experiment [1] (setting [12]), the “Test D control value” is recorded as “H (more than 50% control value)”. The “Test C control value” in the experiment with Alternaia brassicicola (setting [12]) is reported as “H (more than 50% control value)”. The “Test E control value” in the experiment with Puccinia recondita (setting [12]) is “H (more than 50% control value)”. For the same compound, the “Test A control value” in the experiment with Magnaporthe grisea (setting [12]) was “H (more than 50% control value)”. The “Test B control value” in the experiment with Botrytis cinerea (setting [12]) is recorded as “H (more than 50% control value)”. For the same compound, the “Test F control value” in the experiment with Phytophthora infestans (setting [12]) is recorded as “L (50% or less control value)”. Moreover, the “Test H control value” in experiment [2] (setting [13]) is on record as “H (more than 50% control value)”.
`CCn1c(-c2c(F)cc(F)cc2F)c(C(=O)C(C)C)cc(Br)c1=O` [compound 366]: in the experiment on Plasmopara viticola (setting [3]), the “Test G control value” is “H (more than 50% control value)”. The “Test D control value” in experiment [1] (setting [4]) is reported as “H (more than 50% control value)”. In addition, the “Test C control value” with Alternaia brassicicola (setting [5]) is on record as “H (more than 50% control value)”. In addition, the “Test E control value” in the experiment with Puccinia recondita (setting [6]) is listed as “H (more than 50% control value)”. The “Test A control value” in the experiment on Magnaporthe grisea (setting [7]) is on record as “H (more than 50% control value)”. In the experiment with Botrytis cinerea (setting [8]), the “Test B control value” is listed as “H (more than 50% control value)”. The “Test F control value” with Phytophthora infestans (setting [9]) is given as “L (50% or less control value)”. Besides, the “Test H control value” in experiment [2] (setting [10]) is “H (more than 50% control value)”.
For the compound `CCn1c(-c2c(F)cc(F)cc2F)c(C(Br)=CBr)cc(Cl)c1=O` [compound 326], the “Test G control value” with Plasmopara viticola (setting [3]) is “L (50% or less control value)”. Moreover, the “Test D control value” in experiment [1] (setting [4]) is reported as “H (more than 50% control value)”. Further, in the experiment with Alternaia brassicicola (setting [5]), the “Test C control value” was “H (more than 50% control value)”. For the same compound, the “Test E control value” in the experiment on Puccinia recondita (setting [6]) is “H (more than 50% control value)”. In the experiment with Magnaporthe grisea (setting [7]), the “Test A control value” is “H (more than 50% control value)”. Further, the “Test B control value” in the experiment with Botrytis cinerea (setting [8]) is given as “H (more than 50% control value)”. Moreover, in the experiment on Phytophthora infestans (setting [9]), the “Test F control value” is reported as “L (50% or less control value)”. For the same compound, in experiment [2] (setting [10]), the “Test H control value” was “H (more than 50% control value)”.
Regarding `CCc1ccc(=O)n(CC)c1-c1c(F)cc(OC)cc1F` [compound 388], in the experiment with Plasmopara viticola (setting [11]), the “Test G control value” is “L (50% or less control value)”. Also, the “Test D control value” in experiment [1] (setting [12]) is given as “L (50% or less control value)”. The “Test C control value” in the experiment with Alternaia brassicicola (setting [12]) was “H (more than 50% control value)”. Also, the “Test E control value” in the experiment on Puccinia recondita (setting [12]) is listed as “H (more than 50% control value)”. In addition, the “Test A control value” in the experiment with Magnaporthe grisea (setting [12]) is on record as “H (more than 50% control value)”. In addition, in the experiment on Botrytis cinerea (setting [12]), the “Test B control value” is on record as “H (more than 50% control value)”. For the same compound, the “Test F control value” with Phytophthora infestans (setting [12]) is on record as “L (50% or less control value)”. Further, the “Test H control value” in experiment [2] (setting [13]) is listed as “H (more than 50% control value)”.
On to `CCn1c(-c2c(F)cc(OC)cc2F)c(C(C)(C)OC)cc(Cl)c1=O` [compound 113], for which, in the experiment on Plasmopara viticola (250 ppm spray), the “Test G control value class” value is reported as “L (50% or less control value)”. Further, the “Test D control value class” value in experiment [1] (Powdery mildew on barley) was “L (50% or less control value)”. In addition, the “Test C control value class” value with Alternaia brassicicola (setting [14]) is “H (more than 50% control value)”. For the same compound, the “Test E control value class” value in the experiment with Puccinia recondita (Brown rust on wheat) is on record as “H (more than 50% control value)”. The “Test A control value class” value in the experiment with Magnaporthe grisea (Blast on rice) is given as “H (more than 50% control value)”. In addition, the “Test B control value class” value in the experiment on Botrytis cinerea (Gray mold on tomato) was “H (more than 50% control value)”. Besides, the “Test F control value class” value in the experiment with Phytophthora infestans (Late blight on tomato) is recorded as “L (50% or less control value)”. The “Test H control value class” value in experiment [2] (250 ppm spray) was “H (more than 50% control value)”.
In the case of `CCCCCCCc1ccc(=O)n(CC)c1-c1ccc(F)cc1Cl` [compound 266], in the experiment on Plasmopara viticola (setting [3]), the “Test G control value” is “L (50% or less control value)”. In addition, the “Test D control value” in experiment [1] (setting [4]) was “H (more than 50% control value)”. In addition, in the experiment with Alternaia brassicicola (setting [5]), the “Test C control value” is “L (50% or less control value)”. For the same compound, in the experiment on Puccinia recondita (setting [6]), the “Test E control value” is “H (more than 50% control value)”. Moreover, the “Test A control value” in the experiment on Magnaporthe grisea (setting [7]) is “L (50% or less control value)”. Besides, in the experiment with Botrytis cinerea (setting [8]), the “Test B control value” is “L (50% or less control value)”. The “Test F control value” in the experiment on Phytophthora infestans (setting [9]) is recorded as “L (50% or less control value)”. Besides, the “Test H control value” in experiment [2] (setting [10]) is on record as “H (more than 50% control value)”.
Consider `CCn1c(-c2ccc(F)cc2Br)c(CC(C)C)cc(Br)c1=O` [compound 201], for which, in the experiment with Plasmopara viticola (setting [3]), the “Test G control value” is “H (more than 50% control value)”. The “Test D control value” in experiment [1] (setting [4]) was “H (more than 50% control value)”. For the same compound, the “Test C control value” with Alternaia brassicicola (setting [5]) is listed as “H (more than 50% control value)”. For the same compound, in the experiment on Puccinia recondita (setting [6]), the “Test E control value” is “H (more than 50% control value)”. Further, the “Test A control value” in the experiment on Magnaporthe grisea (setting [7]) is “H (more than 50% control value)”. Further, in the experiment with Botrytis cinerea (setting [8]), the “Test B control value” is recorded as “H (more than 50% control value)”. In the experiment with Phytophthora infestans (setting [9]), the “Test F control value” is recorded as “L (50% or less control value)”. In experiment [2] (setting [10]), the “Test H control value” is given as “H (more than 50% control value)”.
Regarding `CCn1c(-c2c(F)cc(OC)cc2F)c(CC(C)C)cc(Cl)c1=O` [compound 42], the “Test G control value class” value with Plasmopara viticola (250 ppm spray) is listed as “H (more than 50% control value)”. Moreover, the “Test D control value class” value in experiment [1] (Powdery mildew on barley) is given as “H (more than 50% control value)”. Moreover, in the experiment on Alternaia brassicicola (setting [14]), the “Test C control value class” value was “H (more than 50% control value)”. Moreover, the “Test E control value class” value in the experiment with Puccinia recondita (Brown rust on wheat) is listed as “H (more than 50% control value)”. Besides, in the experiment with Magnaporthe grisea (Blast on rice), the “Test A control value class” value is given as “H (more than 50% control value)”. The “Test B control value class” value with Botrytis cinerea (Gray mold on tomato) is “H (more than 50% control value)”. In addition, the “Test F control value class” value in the experiment on Phytophthora infestans (Late blight on tomato) is “L (50% or less control value)”. Further, in experiment [2] (250 ppm spray), the “Test H control value class” value is “H (more than 50% control value)”.
Take `CCn1c(-c2c(F)cc(OC)cc2F)c(C(C)(O)C(C)C)cc(Cl)c1=O` (racemic) [compound 108]: the “Test G control value class” value in the experiment with Plasmopara viticola (250 ppm spray) is reported as “H (more than 50% control value)”. In addition, the “Test D control value class” value in experiment [1] (Powdery mildew on barley) was “H (more than 50% control value)”. The “Test C control value class” value in the experiment on Alternaia brassicicola (setting [14]) is “H (more than 50% control value)”. In addition, the “Test E control value class” value in the experiment on Puccinia recondita (Brown rust on wheat) is “H (more than 50% control value)”. For the same compound, in the experiment on Magnaporthe grisea (Blast on rice), the “Test A control value class” value is reported as “H (more than 50% control value)”. For the same compound, the “Test B control value class” value in the experiment with Botrytis cinerea (Gray mold on tomato) was “H (more than 50% control value)”. For the same compound, in the experiment with Phytophthora infestans (Late blight on tomato), the “Test F control value class” value is “L (50% or less control value)”. Moreover, the “Test H control value class” value in experiment [2] (250 ppm spray) is reported as “H (more than 50% control value)”.
As to `CCCc1cc(I)c(=O)n(CC(F)F)c1-c1c(F)cccc1F` [compound 494], in the experiment with Plasmopara viticola (setting [11]), the “Test G control value” is recorded as “H (more than 50% control value)”. In addition, in experiment [1] (setting [12]), the “Test D control value” is on record as “H (more than 50% control value)”. In addition, the “Test C control value” in the experiment on Alternaia brassicicola (setting [12]) is given as “H (more than 50% control value)”. In addition, the “Test E control value” in the experiment on Puccinia recondita (setting [12]) is recorded as “H (more than 50% control value)”. Moreover, the “Test A control value” in the experiment with Magnaporthe grisea (setting [12]) is given as “H (more than 50% control value)”. Besides, in the experiment with Botrytis cinerea (setting [12]), the “Test B control value” was “H (more than 50% control value)”. Moreover, the “Test F control value” in the experiment with Phytophthora infestans (setting [12]) was “L (50% or less control value)”. In experiment [2] (setting [13]), the “Test H control value” is on record as “H (more than 50% control value)”.
